From ChEMBL document CHEMBL4028880, “Structure-Activity Relationships of New Natural Product-Based Diaryloxazoles with Selective Activity against Androgen Receptor-Positive Breast Cancer Cells” (J Med Chem, 2017)

Test: Aqueous solubility of the compound
Type: physicochemical
Conditions: buffer

solubility: Insoluble
Structure (SMILES): CC(C)=CCOc1ccc(-c2cnc(-c3ccccc3)o2)cc1
